In US20230085307A1, “PYRIDAZINONE COMPOUND AND HERBICIDE” (NISSAN CHEMICAL CORPORATION, priority 2019, published 2023):

Tests used:
oval-leafed pondweed = assay: Test Example 1: herbicidal activity, application before weed generation under submerged conditions (Table 16, symbol C); format: in vivo, oval-leafed pondweed (Monochoria vaginalis); settings: 320 g/ha applied herbicide
In short: (§1)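 Emulsion formulation, water-diluted to set dose, was put onto the flooded surface (4 cm depth, alluvial soil) the same day weeds were sown and 2.5-leaf rice transplanted. After 3 weeks at 25-30 °C under glass, each species was rated 0 (≤5% kill) to 5 (≥90% kill).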

rice flat sedge = assay: Test Example 3: herbicidal effect by foliage application, Wagner pot (Table 18, symbol E); format: in vivo, rice flat sedge (Cyperus iria); settings: amount of applied herbicide 320 g/ha
In short: (§2)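 Plants were sown in alluvial soil held under 0.1–0.5 cm standing water and grown 14 days in a greenhouse at 25–30 °C. An emulsifiable formulation, water-diluted to the set dose, was then sprayed onto the foliage, and effects were scored three weeks later using previously defined criteria.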

persian speedwell [1] = assay: Test Example 5: herbicidal effect by foliage application, plastic box (Table 20, symbol R); format: in vivo, Persian speedwell (Veronica persica); settings: foliage application, 320 g/ha, evaluated three weeks after application
In short: (§3)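 Sow seeds spot-wise in sterilized diluvial soil; cover with ~1.5 cm soil. Grow 14 days in greenhouse, 25° C. to 30° C. Spray foliage with emulsion diluted to predetermined amount. Rate effect after 3 weeks.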

green foxtail [2] = assay: Test Example 4: herbicidal effect by soil treatment (Table 19, symbol G); format: in vivo, green foxtail (Setaria viridis); settings: amount of applied herbicide 320 g/ha
In short: (§4)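 Soil-surface application: an emulsion agent diluted with water to the predetermined dose is sprayed uniformly over seeds lying under roughly 1.5 cm of sterilized diluvial soil. Boxes stay in a greenhouse at 25° C. to 30° C. Three weeks later, each species is graded on previously defined criteria.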

Italian ryegrass [3] = assay: Test Example 5: herbicidal effect by foliage application, plastic box (Table 20, symbol K); format: in vivo, Italian ryegrass (Lolium multiflorum); settings: foliage application, 320 g/ha, evaluated three weeks after application
In short: as §3

blackgrass [4] = assay: Test Example 5: herbicidal effect by foliage application, plastic box (Table 20, symbol J); format: in vivo, blackgrass (Alopecurus myosuroides); settings: foliage application, 320 g/ha, evaluated three weeks after application
In short: as §3

Japanese bulrush = assay: Test Example 1: herbicidal activity, application before weed generation under submerged conditions (Table 16, symbol B); format: in vivo, Japanese bulrush (Schoenoplectus juncoides); settings: 320 g/ha applied herbicide
In short: as §1

velvetleaf [5] = assay: Test Example 5: herbicidal effect by foliage application, plastic box (Table 20, symbol M); format: in vivo, velvetleaf (Abutilon theophrasti); settings: foliage application, 320 g/ha, evaluated three weeks after application
In short: as §3

barnyard grass [6] = assay: Test Example 4: herbicidal effect by soil treatment (Table 19, symbol H); format: in vivo, barnyard grass (Echinochloa crus-galli); settings: amount of applied herbicide 320 g/ha
In short: as §4

barnyard grass [7] = assay: Test Example 3: herbicidal effect by foliage application, Wagner pot (Table 18, symbol H); format: in vivo, barnyard grass (Echinochloa crus-galli); settings: amount of applied herbicide 320 g/ha
In short: as §2

late watergrass = assay: Test Example 1: herbicidal activity, application before weed generation under submerged conditions (Table 16, symbol A); format: in vivo, late watergrass (Echinochloa oryzicola); settings: 320 g/ha applied herbicide
In short: as §1

green foxtail [8] = assay: Test Example 5: herbicidal effect by foliage application, plastic box (Table 20, symbol G); format: in vivo, green foxtail (Setaria viridis); settings: foliage application, 320 g/ha, evaluated three weeks after application
In short: as §3

persian speedwell [9] = assay: Test Example 4: herbicidal effect by soil treatment (Table 19, symbol R); format: in vivo, Persian speedwell (Veronica persica); settings: amount of applied herbicide 320 g/ha
In short: as §4

lambsquarters [10] = assay: Test Example 5: herbicidal effect by foliage application, plastic box (Table 20, symbol O); format: in vivo, lambsquarters (Chenopodium album); settings: foliage application, 320 g/ha, evaluated three weeks after application
In short: as §3

wild oat [11] = assay: Test Example 4: herbicidal effect by soil treatment (Table 19, symbol I); format: in vivo, wild oat (Avena fatua); settings: amount of applied herbicide 320 g/ha
In short: as §4

lambsquarters [12] = assay: Test Example 4: herbicidal effect by soil treatment (Table 19, symbol O); format: in vivo, lambsquarters (Chenopodium album); settings: amount of applied herbicide 320 g/ha
In short: as §4

Italian ryegrass [13] = assay: Test Example 4: herbicidal effect by soil treatment (Table 19, symbol K); format: in vivo, Italian ryegrass (Lolium multiflorum); settings: amount of applied herbicide 320 g/ha
In short: as §4

false cleavers [14] = assay: Test Example 4: herbicidal effect by soil treatment (Table 19, symbol Q); format: in vivo, false cleavers (Galium spurium); settings: amount of applied herbicide 320 g/ha
In short: as §4

wild oat [15] = assay: Test Example 5: herbicidal effect by foliage application, plastic box (Table 20, symbol I); format: in vivo, wild oat (Avena fatua); settings: foliage application, 320 g/ha, evaluated three weeks after application
In short: as §3

chickweed [16] = assay: Test Example 5: herbicidal effect by foliage application, plastic box (Table 20, symbol P); format: in vivo, common chickweed (Stellaria media); settings: foliage application, 320 g/ha, evaluated three weeks after application
In short: as §3

Chinese sprangletop = assay: Test Example 3: herbicidal effect by foliage application, Wagner pot (Table 18, symbol D); format: in vivo, chinese sprangletop (Leptochloa chinensis); settings: amount of applied herbicide 320 g/ha
In short: as §2

blackgrass [17] = assay: Test Example 4: herbicidal effect by soil treatment (Table 19, symbol J); format: in vivo, blackgrass (Alopecurus myosuroides); settings: amount of applied herbicide 320 g/ha
In short: as §4

velvetleaf [18] = assay: Test Example 4: herbicidal effect by soil treatment (Table 19, symbol M); format: in vivo, velvetleaf (Abutilon theophrasti); settings: amount of applied herbicide 320 g/ha
In short: as §4

barnyard grass [19] = assay: Test Example 5: herbicidal effect by foliage application, plastic box (Table 20, symbol H); format: in vivo, barnyard grass (Echinochloa crus-galli); settings: foliage application, 320 g/ha, evaluated three weeks after application
In short: as §3

southern crabgrass [20] = assay: Test Example 5: herbicidal effect by foliage application, plastic box (Table 20, symbol F); format: in vivo, southern crabgrass (Digitaria ciliaris); settings: foliage application, 320 g/ha, evaluated three weeks after application
In short: as §3

chickweed [21] = assay: Test Example 4: herbicidal effect by soil treatment (Table 19, symbol P); format: in vivo, common chickweed (Stellaria media); settings: amount of applied herbicide 320 g/ha
In short: as §4

southern crabgrass [22] = assay: Test Example 4: herbicidal effect by soil treatment (Table 19, symbol F); format: in vivo, southern crabgrass (Digitaria ciliaris); settings: amount of applied herbicide 320 g/ha
In short: as §4

false cleavers [23] = assay: Test Example 5: herbicidal effect by foliage application, plastic box (Table 20, symbol Q); format: in vivo, false cleavers (Galium spurium); settings: foliage application, 320 g/ha, evaluated three weeks after application
In short: as §3

windgrass = assay: Test Example 4: herbicidal effect by soil treatment (Table 19, symbol L); format: in vivo, windgrass (Apera spica-venti); settings: amount of applied herbicide 320 g/ha
In short: as §4

redroot pigweed = assay: Test Example 4: herbicidal effect by soil treatment (Table 19, symbol N); format: in vivo, redroot pigweed (Amaranthus retroflexus); settings: amount of applied herbicide 320 g/ha
In short: as §4

With `CCCC(=O)Oc1c(C)nn(C)c(=O)c1-c1c(-c2ccc(F)cc2OC)sc2ccc(C)cc12` [2-149] the “Herbicidal effect on C: oval-leafed pondweed (grade 0-5)” value (oval-leafed pondweed) was 0 (Herbicidal rate of 5% or less (almost no effect)), the “herbicidal effect on E: rice flat sedge” value (rice flat sedge) was 3 (Herbicidal rate of 40% or more and less than 70%) and the “herbicidal effect on R: persian speedwell (criteria 0-5)” value (persian speedwell [1]) was 3 (Herbicidal rate of 40% or more and less than 70%). The “G: green foxtail, herbicidal effect rating” value (green foxtail [2]) was 4 (Herbicidal rate of 70% or more and less than 90%), the “herbicidal effect on K: Italian ryegrass (criteria 0-5)” value (Italian ryegrass [3]) was 0 (Herbicidal rate of 5% or less (almost no effect)) and the “herbicidal effect on J: blackgrass (criteria 0-5)” value (blackgrass [4]) was 2 (Herbicidal rate of 20% or more and less than 40%). The “Herbicidal effect on B: Japanese bulrush (grade 0-5)” value (Japanese bulrush) was 1 (Herbicidal rate of 5% or more and less than 20%), the “herbicidal effect on M: velvetleaf (criteria 0-5)” value (velvetleaf [5]) was 1 (Herbicidal rate of 5% or more and less than 20%) and the “H: barnyard grass, herbicidal effect rating” value (barnyard grass [6]) was 0 (Herbicidal rate of 5% or less (almost no effect)). The “herbicidal effect on H: barnyard grass” value (barnyard grass [7]) was 5 (Herbicidal rate of 90% or more (almost completely withered)), the “Herbicidal effect on A: late watergrass (grade 0-5)” value (late watergrass) was 3 (Herbicidal rate of 40% or more and less than 70%) and the “herbicidal effect on G: green foxtail (criteria 0-5)” value (green foxtail [8]) was 5 (Herbicidal rate of 90% or more (almost completely withered)). For the same compound, the “R: persian speedwell, herbicidal effect rating” value (persian speedwell [9]) was 3 (Herbicidal rate of 40% or more and less than 70%), the “herbicidal effect on O: lambsquarters (criteria 0-5)” value (lambsquarters [10]) was 4 (Herbicidal rate of 70% or more and less than 90%) and the “I: wild oat, herbicidal effect rating” value (wild oat [11]) was 0 (Herbicidal rate of 5% or less (almost no effect)). The “O: lambsquarters, herbicidal effect rating” value (lambsquarters [12]) was 4 (Herbicidal rate of 70% or more and less than 90%), the “K: Italian ryegrass, herbicidal effect rating” value (Italian ryegrass [13]) was 0 (Herbicidal rate of 5% or less (almost no effect)) and the “Q: false cleavers, herbicidal effect rating” value (false cleavers [14]) was 3 (Herbicidal rate of 40% or more and less than 70%). The “herbicidal effect on I: wild oat (criteria 0-5)” value (wild oat [15]) was 1 (Herbicidal rate of 5% or more and less than 20%), the “herbicidal effect on P: chickweed (criteria 0-5)” value (chickweed [16]) was 5 (Herbicidal rate of 90% or more (almost completely withered)) and the “herbicidal effect on D: Chinese sprangletop” value (Chinese sprangletop) was 0 (Herbicidal rate of 5% or less (almost no effect)). For the same compound, the “J: blackgrass, herbicidal effect rating” value (blackgrass [17]) was 0 (Herbicidal rate of 5% or less (almost no effect)), the “M: velvetleaf, herbicidal effect rating” value (velvetleaf [18]) was 0 (Herbicidal rate of 5% or less (almost no effect)) and the “herbicidal effect on H: barnyard grass (criteria 0-5)” value (barnyard grass [19]) was 3 (Herbicidal rate of 40% or more and less than 70%). The “herbicidal effect on F: southern crabgrass (criteria 0-5)” value (southern crabgrass [20]) was 3 (Herbicidal rate of 40% or more and less than 70%), the “P: chickweed, herbicidal effect rating” value (chickweed [21]) was 3 (Herbicidal rate of 40% or more and less than 70%) and the “F: southern crabgrass, herbicidal effect rating” value (southern crabgrass [22]) was 0 (Herbicidal rate of 5% or less (almost no effect)). The “herbicidal effect on Q: false cleavers (criteria 0-5)” value (false cleavers [23]) was 3 (Herbicidal rate of 40% or more and less than 70%), the “L: windgrass, herbicidal effect rating” value (windgrass) was 0 (Herbicidal rate of 5% or less (almost no effect)) and the “N: redroot pigweed, herbicidal effect rating” value (redroot pigweed) was 5 (Herbicidal rate of 90% or more (almost completely withered)).
